Consider 1 compound from patent US20070161696A1, “Methods of using and compositions comprising selective cytokine inhibitory drugs for treatment, modification and management of pain” (priority 2004, published 2007).

One series concerns TNF-α production. Briefly: Inhibition of TNF-α production following LPS-stimulation of human PBMC and human whole blood, in vitro. It is filed as cell-based. Particulars: in vitro studies; compared with thalidomide. How it is done: In a specific embodiment, the pharmacological properties of 3-(3,4-dimethoxy-phenyl)-3-(1-oxo-1,3-dihydro-isoindol-2-yl)-propionamide are characterized in in vitro studies. Studies examine the effects of the compound on the production of various cytokines. Inhibition of TNF-α production following LPS-stimulation of human PBMC and human whole blood by the compound is investigated in vitro. The IC50's of the compound for inhibiting production of TNF-α are measured. […] The pharmacological effects of 3-(3,4-dimethoxy-phenyl)-3-(1-oxo-1,3-dihydro-isoindol-2-yl)-propionamide may derive from its action as an inhibitor of the generation of inflammatory cytokines.

Series [1] is described as follows: Cardiovascular and respiratory function in anesthetized dogs. It counts as in vivo. Particulars: anesthetized Beagle dogs; ascending doses 400, 800 and 1,200 mg/kg/day by infusion through the jugular vein; compared to vehicle control group. How it is done:
The effects of 3-(3,4-dimethoxy-phenyl)-3-(1-oxo-1,3-dihydro-isoindol-2-yl)-propionamide on cardiovascular and respiratory function are investigated in anesthetized dogs. Two groups of Beagle dogs (2/sex/group) are used. One group receives three doses of vehicle only and the other receives three ascending doses of 3-(3,4-dimethoxy-phenyl)-3-(1-oxo-1,3-dihydro-isoindol-2-yl)-propionamide (400, 800, and 1,200 mg/kg/day). In all cases, doses of 3-(3,4-dimethoxy-phenyl)-3-(1-oxo-1,3-dihydro-isoindol-2-yl)-propionamide or vehicle are successively administered via infusion through the jugular vein separated by intervals of at least 30 minutes.
The cardiovascular and respiratory changes induced by 3-(3,4-dimethoxy-phenyl)-3-(1-oxo-1,3-dihydro-isoindol-2-yl)-propionamide are minimal at all doses when compared to the vehicle control group. 5.3 Studies Using Animal Pain Models

Series [2] in a line: Clinical study in pain patients with upper extremity CRPS. It is filed as in vivo, human. Particulars: 1,200 mg as a continuous oral daily dose. How it is done: Selective cytokine inhibitory drugs of the invention such as 3-(3,4-dimethoxy-phenyl)-3-(1-oxo-1,3-dihydro-isoindol-2-yl)-propionamide are administered in an amount of 400 to 1,200 mg per day to patients with pain syndromes for three to six months. A baseline evaluation is performed for the effect of the drug treatment on pain intensity, impact of pain on activities of daily living, and consumption of other pain medications.
In a specific embodiment, clinical studies are performed in pain patients who have upper extremity CRPS that has not responded to conventional physical therapy and has been present for at least one year. In the early course of their diseases, patients have clear evidence of autonomic dysfunction with formal autonomic testing (Quantitative sudomotor axon reflex test (QSART), resting sweat output, and thermography). If this is unavailable, documentation of clinical signs indicates autonomic dysfunction (changes in hydration, temperature, skin, nail or hair growth) along with symptoms of allodynia and swelling. […] Responses are assessed using standard pain scales, e.g., Numeric Pain Scale Assessment (VAS) for pain, quality of life using the McGill Index and objective signs in clinical examination such as a visible reduction of swelling, sweating, discolorations in skin color, temperature changes, changes in skin, hair and nail growth, and fine motor movements. […]

Consider `COc1ccc(C(CC(N)=O)N2Cc3ccccc3C2=O)cc1OC` (stereo not drawn) [3-(3,4-Dimethoxy-phenyl)-3-(1-oxo-1,3-dihydro-isoindol-2-yl)-propionamide], for which, in the series on TNF-α production, the “pharmacological activity profile, potency relative to thalidomide” value is “five to fifty times more potent than thalidomide”. Further, in series [1], the “cardiovascular and respiratory changes” value is “minimal”. For the same compound, the tolerability result in series [2] is listed as “well-tolerated”.
